Consider five molecules from patent US20100098737A1, “METHODS AND COMPOSITIONS FOR DELIVERY OF GLYCOPEPTIDE ANTIBIOTICS TO MEDICAL DEVICE SURFACES” (priority 2008, published 2010).

Like-named read-outs stand apart in the source and are kept apart here. *1 amine or outer side, *2 acyl side, *3 side chain or, on linkers, in order; H or OH if unused. Bridges are numbered along the chain shown (N, C = ends). Where no end group is shown, it is not given here. [ ]: non-standard residue; d: D form. The star is where a group is joined. (miniPEG)2 = linker of two miniPEG units, each HN-CH2CH2-O-CH2CH2-O-CH2-C(=O), O=C(COCCOCCN[*:1])NCCOCCOCC(=O)[*:2]; Myristoyl = CCCCCCCCCCCCCC(=O)*; Aun = NCCCCCCCCCCC(=O)O; Ahx = NCCCCCC(=O)O

Test [1] deals with binding between vancomycin and a peptide comprising SEQ ID NO:1. The experiment in a line: inhibition by Lys-D-Ala-D-Ala of binding between vancomycin and peptide SEQ ID NO:1. As to the method:
As an example, illustrated is the inhibition by Lys-D-Ala-D-Ala of specific binding between vancomycin and a peptide comprising the amino acid sequence of SEQ ID NO:1. To the wells of a 96 well plate coated with streptavidin was added 100 μl of a 0.2 μM solution of biotinylated peptide in buffer-T. After incubation, the wells were blocked by adding 200 μl of a 0.5 mM solution of biotin in buffer-T. The plates were then washed three times with buffer-T. Serial dilutions of Lys-D-Ala-D-Ala were prepared, and added individually to the wells such that Lys-D-Ala-D-Ala ranged in a final concentration of from about 1 μM to about 200 μM (in a volume of 35 μl). Also added to each well was 35 μl of biotinylated vancomycin (20 nM final concentration), and the plate was incubated at 30 minutes for room temperature. The wells were then washed three times with buffer-T, followed by the addition of 100 μl of streptavidin-alkaline phosphatase conjugate (1 mg/ml diluted 1:500 in buffer-T). Following a 30 minute incubation, the wells were washed five times with buffer-T. Added to each well was 100 μl of pNPP, followed by colorimetric detection after 12 minutes at an absorbance of 405 nm.

In the next test the test system is S. aureus MZ100. Kind of test: in vitro infection model on titanium pins, colony counts. It counts as cell-based. To be noted: composition 5 μM + vancomycin 100 μM, two hours incubation. As to the method: Acetone-sterilized titanium pins (1 mm diameter, 12 mm long) were first washed in PBS. These pins were then incubated in a solution (PBS) containing the respective composition (5 μM)+vancomycin (100 μM) for 15 minutes at room temperature, with intermittent inversion for coating. Each pin was then washed extensively in PBS and placed in 30 μL of S. aureus MZ100 cultured at 10^6 colony forming units (cfu) per mL, according to methods above. The coated pins were then inoculated in 30 mm lengths of 1.5 mm diameter silicone tubing, with closed ends. After incubation for two hours with shaking, the pin was placed in a new tube containing 1 mL PBS. After inverting several times, PBS was aspirated, and replaced with a fresh 1 mL of PBS. The pins were then sonicated at 20 kHz for four cycles of 15 seconds each. Supernatants (100 μL) and dilutions were plated on trypticase soy agar (TSA) plates, incubated for 24 hours at 37° C., and colonies were counted. An assay control included the same steps of the infection model, except that the pin is uncoated pin (i.e., without composition according to the presently disclosed subject matter bound thereto) (“Control”). As representative examples, compositions comprising the amino acid sequences of SEQ ID NOs: 125 and 126 were tested for antimicrobial activity using the in vitro infection model (see, Table 7, “A” & “B”, respectively).

Test [2] in a line: binding assay: biotinylated synthetic peptide on streptavidin plate, titrated with biotinylated glycopeptide antibiotic. As to the method: A typical binding assay for glycopeptide antibiotic was performed according to the following procedure. Briefly, synthetic peptides comprising an amino acid sequence to be characterized for binding were biotinylated to facilitate immobilization on streptavidin-coated 96-well plates. The microtiter plates were coated with streptavidin by adding 50 μl of a 10 μg/ml streptavidin solution in 0.1M NaHCO3, and incubating the plates for at least 3 hours. The plate wells were blocked by adding 150 μl of a 1% BSA solution in 0.1 NaHCO3 with incubation for at least 2 hours, and the plates were stored at 4° C. until needed. Before use, the streptavidin plates were washed extensively in buffer-T. Added per well was peptide (100 μl 0.1 μM peptide in buffer-T), and then incubated for 30 minutes at room temperature with shaking. 200 μl of 0.5 mM biotin in buffer-T was added to block the remaining streptavidin sites, and plates were incubated for 15 minutes at room temperature. Plates were then washed with buffer-T to remove the excess biotin and peptide. Serial dilutions of biotinylated glycopeptide antibiotic in buffer-T were added (100 μl) to each well, representing a range of concentrations between 100 pM and 100 μM. Plates were incubated for 30 minutes at room temperature with shaking prior to washing several times with buffer-T. Glycopeptide antibiotic was then detected by adding 100 μl of a diluted streptavidin-alkaline phosphatase conjugate to each well and incubated at room temperature for 30 minutes. Excess conjugate was removed by repeated washes with buffer-T, and the amount of alkaline phosphatase remaining in the well was detected using a pNPP (para-nitrophenylphosphate) colorimetric enzymatic assay. The relative amount of glycopeptide antibiotic captured by the peptides was determined by measuring the absorbance at 405 nm of the colored product of the alkaline phosphatase reaction. The EC50 was determined for each peptide relative to the binding affinity for the glycopeptide antibiotic used in the assay, as shown in Table 1 (with vancomycin as a representative glycopeptide antibiotic).
A typical binding assay for glycopeptide antibiotic was performed according to the following procedure. The concentrations of the alkaline-phosphatase linked variant peptides were normalized to equal levels based on the alkaline-phosphatase activity as determined in a kinetic assay with the alkaline-phosphatase specific chromogenic substrate p-nitrophenyl phosphate (p-NPP). A streptavidin coated microtiter plate was coated with biotinylated vancomycin. Serial dilutions of normalized alkaline-phosphatase linked peptides were allowed to bind to the immobilized vancomycin and detected by addition of the alkaline-phosphatase specific chromogenic substrate p-NPP. Relative affinity for peptide binding to the immobilized vancomycin was determined by measuring the absorbance at 405 nm of the colored product of the alkaline phosphatase reaction. […] EC50 values for the synthetic peptides binding to vancomycin were determined as described in Example 1 and are shown in Table 3. Preferred are peptides that bind to glycopeptide antibiotic with binding affinity of EC50 of less than or equal to about 1 μM, and more preferably, in the nanomolar range (e.g., <0.1 μM).

A short description of test [3]: binding assay for gentamycin, similar format as for vancomycin. To be noted: aminoglycoside antibiotic.
For test [4], the target named is vancomycin. The experiment in a line: retention of BODIPY-FL vancomycin on titanium beads with the peptide composition, followed from 45 minutes to 100 hours.
Test [5] concerns the target vancomycin. Kind of test: titanium beads with 10 µM peptide composition and 200 µM vancomycin, washed, vancomycin eluted with HCl and measured by HPLC.

Consider Lys-D-Ala-D-Ala (Lys-[dA]-[dA]), for which the “inhibition of binding between vancomycin and peptide” value in test [1] (Lys-D-Ala-D-Ala between 100 μM to 200 μM) was about 100%. In test [1] (biotinylated vancomycin 20 nM, read-out: concentration needed to inhibit about 50% of the binding between vancomycin and peptide), the IC50 was about 10000 nM.
Take “AUD-AUD-AUD-SSCLIDIYGVCHNFDAY-(miniPEG)2-HKKNNPKKKNKTRGSSK ([Aun][Aun][Aun]SSCLIDIYGVCHNFDAY[miniPEG][miniPEG]HKKNNPKKKNKTRGSSK; disulfide 6-14 (inferred)) [SEQ ID NO: 126]”: the “# of bacterial colonies (CFU)” value in the test on S. aureus MZ100 was under 10 CFU.
In the case of CLIDMYGVCHNFDGAYDS [compound 1], the EC50 in test [2] (synthetic peptides binding to vancomycin, read-out: EC50, binding to glycopeptide antibiotic) was under 0.1 µM; in test [2] (synthetic peptides, biotinylated vancomycin, read-out: EC50 (μM) for vancomycin binding), 0.1 µM. Further, the “binding affinity for gentamycin” value in test [3] is listed as “lacked significant binding affinity”.
Take “Myr-Ahx-SSCLIDIYGVCHNFDAY-(miniPEG)2-HKKNNPKKKNKTRGSSK ({Myristoyl-Ahx}-SSCLIDIYGVCHNFDAY[miniPEG][miniPEG]HKKNNPKKKNKTRGSSK; disulfide 3-11 (inferred)) [SEQ ID NO: 125]”: the “# of bacterial colonies (CFU)” value with S. aureus MZ100 was determined as 100 CFU.

B1: peptide composition comprising SEQ ID NO: 120 (peptide)
peptide: H-SSSCLIDMYGVCHNFDGAYDSSRG[(miniPEG)2]SSHRTNHKKNNPKKKNKTRGSSGK-NH2
modifications: disulfide 4-12 (inferred)
For the molecule B1, the percent of BODIPY-FL vancomycin remaining on the metal surface after 3 hours in the test with vancomycin [4] is 50%. In addition, in the test with vancomycin [5], the Picomoles vancomycin/cm^2 (picomoles/cm^2) came out at 61.
